Measurements reported in US5591741A, “Fungicidal spiroheterocyclic derivatives” (American Cyanamid Company, priority 1993, dated 1997).

Columns and labels:
Pyricularia oryzae = type: in vivo; details: rice seedlings, direct therapeutic foliar spray, 600 ppm, 4-5 days
Leptosphaeria nodorum = experiment: Activity against wheat leafspot (LN); type: in vivo; details: direct therapeutic foliar spray, 600 ppm, 6-8 days
Procedure, shortened: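 Wheat cv Norman at single-leaf stage spray-inoculated with 1.5×10^6 conidia/ml, held 24 h at high humidity, then sprayed therapeutically with test compound at 600 ppm. Kept 6-8 days at 22° C, 70% humidity; lesion density per leaf rated against untreated or diluent-sprayed controls.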

[1] = test system: Pseudocercosporella herpotrichoides; experiment: Activity against wheat eyespot in-vitro (PHI); type: cell-based; details: 10 ppm, 10 days, 20° C., mycelial growth
Procedure, shortened: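 P. herpotrichoides mycelial fragments (5×10^4/ml) grown in half-strength PDB with compound at 10 ppm final, added from acetone. Incubated 10 days at 20 °C; mycelial growth rated against untreated or diluent controls.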

Botrytis cinerea = experiment: Direct protectant activity against broad bean grey mould (BCB); type: in vivo; details: direct protectant foliar spray, 600 ppm, 4 days
Procedure, shortened: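 Broad bean plants (cv The Sutton, two leaf pairs) sprayed on upper leaf surfaces at 600 ppm, then inoculated 24 h later with 10^6 conidia/ml. Kept 4 days at 22 °C, high humidity; disease control rated from % leaf area with lesions against untreated or diluent controls.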

Venturia inaequalis = experiment: Activity against apple scab in-vitro (VII); type: cell-based; details: 10 ppm, 10 days, 20° C., mycelial growth
Procedure, shortened: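 Compound in acetone was tested at 10 ppm final in half-strength Potato Dextrose Broth inoculated with V. inaequalis mycelial fragments and spores at 5×10^4 propagules/ml. After 10 days at 20° C, mycelial growth was rated against untreated or diluent controls.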

Alternaria solani = experiment: Activity against tomato early blight (AS); type: in vivo; details: Table VI; tomato seedlings, contact prophylactic foliar spray, 4 days
Procedure, shortened: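 Foliar contact prophylactic spray on tomato seedlings (cv Outdoor Girl, second true leaf expanded) in acetone/water 50:50 with 0.04% Tween 20; 24 h at 20° C, 40% R.H., then inoculation with 10^4 spores/ml A. solani conidia. Kept moist at 21° C; lesion cover rated 4 days post-inoculation against untreated or diluent-sprayed controls.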

Phytophthora infestans = type: in vivo; details: tomato, direct protectant foliar spray
[2] = test system: Erysiphe graminis f.sp. hordei; experiment: Direct protectant activity against barley powdery mildew (EGP); type: in vivo; details: direct protectant foliar spray, 8 days
Procedure, shortened: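 Barley seedlings (cv Golden Promise, single-leaf stage) were foliar-sprayed, held 24 h at 18 °C/40% RH, then dusted with mildew conidia. After 8 days at 18 °C/40% RH, sporulating leaf area was scored as a rating against untreated or diluent-sprayed controls.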

[3] = test system: Erysiphe graminis f.sp. hordei; experiment: Activity against barley powdery mildew, direct therapeutic (EGT); type: in vivo; details: direct therapeutic foliar spray, 600 ppm, up to 7 days
Procedure, shortened: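 Barley seedlings (cv. Golden Promise, single-leaf stage) were dusted with mildew conidia one day before a therapeutic foliar spray of 600 ppm compound. Plants were kept at 18 °C and 40% humidity for up to 7 days, and sporulating leaf area was rated against untreated or diluent-sprayed controls.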

Plasmopara viticola = experiment: Antisporulant activity against vine downy mildew (PVA); type: in vivo; details: vine leaves, antisporulant foliar spray, 600 ppm, 750 l/ha
Procedure, shortened: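 Cabernet Sauvignon vines (~8 cm) inoculated on lower leaf surfaces with 5×10^4 zoosporangia/ml, held 24 h at 21° C high humidity then 24 h glasshouse. Infected leaves sprayed underside with 600 ppm compound in 1:1 water/acetone, 0.04% Tween 20, 750 l/ha; 96 h glasshouse, 24 h humidity. Sporulating leaf area rated versus control.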

Rhizoctonia solani = experiment: Activity against Rhizoctonia in-vitro (RSI); type: cell-based; details: 10 ppm, 10 days, 20° C., mycelial growth
Procedure, shortened: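 R. solani mycelial fragments (5×10^4/ml) in half-strength Potato Dextrose Broth with compound added from acetone to 10 ppm final. Mycelial growth assessed after 10 days at 20° C, rated against untreated or diluent control.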

SMILES	disease control rating PO (Pyricularia oryzae)	disease control rating LN (Leptosphaeria nodorum)	disease control rating PHI [1]	disease control rating BCB (Botrytis cinerea)	disease control rating VII (Venturia inaequalis)	disease control rating AS (Alternaria solani)	disease control rating PIP (Phytophthora infestans)	disease control rating EGP [2]	disease control rating EGT [3]	disease control rating PVA (Plasmopara viticola)	disease control rating RSI (Rhizoctonia solani)
CCCCCCCCNCC1COC2(CCC(C(C)(C)C)CC2)C1 (centres unmarked) [Compound 183, 8-t-butyl-3-n-octylaminomethyl-1-oxaspiro(4,5)-decane]	0 (less than 50% disease control)	0 (less than 50% disease control)	1 (about 50-80% disease control)	0 (less than 50% disease control)	2 (greater than 80% disease control)	0 (less than 50% disease control)	1 (about 50-80% disease control)	2 (greater than 80% disease control)	2 (greater than 80% disease control)	0 (less than 50% disease control)	2 (greater than 80% disease control)
CCCCCCNCC1COC2(CCC(C(C)(C)C)CC2)C1 (centres unmarked) [Compound 184, 8-t-butyl-3-n-hexylaminomethyl-1-oxaspiro(4,5)decane]	0 (less than 50% disease control)	0 (less than 50% disease control)	1 (about 50-80% disease control)	2 (greater than 80% disease control)	2 (greater than 80% disease control)	0 (less than 50% disease control)	0 (less than 50% disease control)	2 (greater than 80% disease control)	2 (greater than 80% disease control)	0 (less than 50% disease control)	2 (greater than 80% disease control)
CC(C)(C)C1CCC2(CC1)CC(CNC1CCCCC1)CO2 (centres unmarked) [Compound 185]	0 (less than 50% disease control)	0 (less than 50% disease control)	0 (less than 50% disease control)	1 (about 50-80% disease control)	0 (less than 50% disease control)	1 (about 50-80% disease control)	0 (less than 50% disease control)	2 (greater than 80% disease control)	2 (greater than 80% disease control)	0 (less than 50% disease control)	0 (less than 50% disease control)
CC(C)CN(CC(C)C)CC1COC2(CCC(C(C)(C)C)CC2)C1 (centres unmarked) [Compound 186]	0 (less than 50% disease control)	0 (less than 50% disease control)	0 (less than 50% disease control)	0 (less than 50% disease control)	0 (less than 50% disease control)	0 (less than 50% disease control)	0 (less than 50% disease control)	2 (greater than 80% disease control)	0 (less than 50% disease control)	0 (less than 50% disease control)	0 (less than 50% disease control)
CC(C)(C)C1CCC2(CC1)CC(CCNC1CCCCC1)CO2 (centres unmarked) [Compound 189, 8-t-Butyl-3-cyclohexylaminoethyl-1-oxaspiro(4,5)decane]	0 (less than 50% disease control)	0 (less than 50% disease control)	0 (less than 50% disease control)	0 (less than 50% disease control)	1 (about 50-80% disease control)	0 (less than 50% disease control)	1 (about 50-80% disease control)	2 (greater than 80% disease control)	2 (greater than 80% disease control)	0 (less than 50% disease control)	0 (less than 50% disease control)
CC(C)(C)C1CCC2(CC1)CC(CCN)CO2.Cl (centres unmarked) [Compound 190, 8-t-butyl-3-aminoethyl-1-oxaspiro(4,5)decane hydrochloride]	0 (less than 50% disease control)	0 (less than 50% disease control)	0 (less than 50% disease control)	0 (less than 50% disease control)	0 (less than 50% disease control)	0 (less than 50% disease control)	2 (greater than 80% disease control)	1 (about 50-80% disease control)	0 (less than 50% disease control)	1 (about 50-80% disease control)	0 (less than 50% disease control)
CN(C)CCC1COC2(CCC(C(C)(C)C)CC2)C1 (centres unmarked) [Compound 191]	0 (less than 50% disease control)	0 (less than 50% disease control)	0 (less than 50% disease control)	0 (less than 50% disease control)	0 (less than 50% disease control)	0 (less than 50% disease control)	0 (less than 50% disease control)	2 (greater than 80% disease control)	0 (less than 50% disease control)	0 (less than 50% disease control)	0 (less than 50% disease control)
